According to US5087704A, “Cyanine compounds” (Asahi Chemical Co., Ltd., priority 1988, dated 1992):

Assays:
[1] = Wavelength at maximum absorption and molar absorptivity of the cyanine compounds; type: physicochemical
[2] = Solubility in solvent; type: physicochemical; details: diacetone alcohol, room temperature
Protocol: Each of cyanine dyes as shown below in Table 2 was dissolved in diacetone alcohol and the solubility was measured at room temperature.

Row | SMILES | molar absorptivity (ε) [1] [L/mol/cm] | wavelength at maximum absorption (λmax) ([1]; methanol) [nm] | Solubility (g/l) [2] | Solubility [2] [g/L] | wavelength at maximum absorption (λmax) ([1]; diacetone alcohol) [nm] | wavelength at maximum absorption (λmax) ([1]; solvent not given) [nm]
1 | CCCCN1C(=CC=CC=CC2=[N+](CCCC)c3cc4c(cc3C2(C)C)OCO4)C(C)(C)c2cc3c(cc21)OCO3 [Preparation Example 1] | 176000 | 696 | At least 30 g/l |  |  | 
2 | CCN1C(=CC=CC=CC2=[N+](CC)c3cc4c(cc3C2(C)C)OCO4)C(C)(C)c2cc3c(cc21)OCO3 [Preparation Example 2] |  | 694 |  | 30 |  | 
3 | COCCN1C(=CC=CC=CC=CC2=[N+](CCOC)c3cc4c(cc3C2(C)C)OCO4)C(C)(C)c2cc3c(cc21)OCO3 [Preparation Example 3] |  | 793 |  |  |  | 
4 | CCCCN1C(=CC=CC=CC2=[N+](CCCC)c3cc4c(cc3C2(C)C)OC(C)C4)C(C)(C)c2cc3c(cc21)CC(C)O3 (centres unmarked) [Preparation Example 4] | 194000 |  | At least 30 g/l |  | 695 | 
5 | CCCCN1C(=CC=CC=CC2=[N+](CCCC)c3cc4c(cc3C2(C)C)CC(C)O4)C(C)(C)c2cc3c(cc21)OC(C)C3 (centres unmarked) [Preparation Example 5] | 190000 |  | At least 30 g/l |  | 688 | 
6 | CCCCN1C(=CC=CC=CC2=[N+](CCCC)c3cc4c(cc3C2(C)C)CCC4)C(C)(C)c2cc3c(cc21)CCC3 [Preparation Example 6] | 224000 |  |  |  | 670 | 
7 | CCOCCN1C(=CC=CC=CC2=[N+](CCOCC)c3cc4c(cc3C2(C)C)CCC4)C(C)(C)c2cc3c(cc21)CCC3 [Preparation Example 7] | 220000 |  |  | 30 | 672 | 
8 | CC(=O)OCCN1C(=CC=CC=CC=CC2=[N+](CCOC(C)=O)c3cc4c(cc3C2(C)C)CCC4)C(C)(C)c2cc3c(cc21)CCC3 [Preparation Example 8] | 228000 |  |  |  |  | 768
9 | COCCN1C(=CC=CC=CC=CC2=[N+](CCOC)c3cc4c(cc3C2(C)C)CCC4)C(C)(C)c2cc3c(cc21)CCC3 [Preparation Example 9] |  |  |  |  |  | 768
10 | CC1(C)C(=CC=CC=CC2=[N+](CCO)c3cc4c(cc3C2(C)C)OCO4)N(CCO)c2cc3c(cc21)OCO3 [Preparation Example 10] |  |  | At least 30 g/l |  | 695 | 
11 | CC1(C)C(=CC=CC=CC=CC2=[N+](CCS(=O)(=O)O)c3cc4c(cc3C2(C)C)OCO4)N(CCS(=O)(=O)O)c2cc3c(cc21)OCO3 [Preparation Example 11] | 160000 | 790 |  |  |  | 
12 | CCCCN1C(=CC=CC=CC=CC2=[N+](CCCC)c3cc4c(cc3C2(C)C)OC(C)C4)C(C)(C)c2cc3c(cc21)CC(C)O3 (centres unmarked) [Preparation Example 12] | 193000 | 795 |  |  |  | 
